# Reference: patent publication US20170334899A1, “AMINO-SUBSTITUTED ISOTHIAZOLES” (Bayer Pharma Aktiengesellschaft, priority 2014, published 2017)
# pIC50: −log10 of the molar value. Read-outs that look alike come from different tables or passages of the source.
# Tests used:
# [1] = tested on: human cervical tumor cell line HeLa (ATCC CCL-2); experiment: SAC-Formation - Nocodazole-Induced Assay; format: cell-based; conditions: Homo sapiens, HeLa, 24 h, HeLa cells, nocodazole 0.1 μg/ml together with test compound, decrease of mitotic cells (phospho-histone H3 Ser10)
# Outline: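 Loss of phospho-histone H3 Ser10-positive cells, counted against Hoechst-stained nuclei by high-content imaging, marked mitotic breakthrough. Compounds (0.005–20 μM, 0.5% DMSO) were co-dosed with 0.1 μg/ml nocodazole onto HeLa cells for 24 h at 37 °C. Curves were fitted with a four-parameter Hill equation.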
# HeLa = experiment: Proliferation assay (crystal violet), HeLa; format: cell-based; conditions: HeLa cells, 4 days incubation, crystal violet staining, read-out: IC50 inhibition of proliferation, HeLa
# Outline: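 Four-day compound exposure (0.001-10 μM, 0.5% DMSO final) began 24 h after seeding 1000-5000 cells/well in medium with 10% fetal calf serum. Cell number read by crystal violet absorbance at 595 nm, scaled between day-zero plate and untreated control; 4-parameter fit gave IC50.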
SMILES,pIC50 [1],"pIC50 (HeLa; Homo sapiens, HeLa, 96 h)",pIC50 (HeLa)
"Cc1nsc(Nc2cnc(C(F)(F)F)cn2)c1C(=O)Nc1ccc(O[C@@H]2CCCN(CC(F)F)C2)nc1 [Example 385, N-(6-{[(3R)-1-(2,2-difluoroethyl)piperidin-3-yl]oxy}pyridin-3-yl)-3-methyl-5-{[5-(trifluoromethyl)pyrazin-2-yl]amino}-1,2-thiazole-4-carboxamide]",6.74,6.46,–
"Cc1nsc(Nc2cnc(C(F)(F)F)cn2)c1C(=O)Nc1ccc(O[C@H]2CCCN(CCC(F)(F)F)C2)nc1 [Example 390, 3-methyl-5-{[5-(trifluoromethyl)pyrazin-2-yl]amino}-N-(6-{[(3S)-1-(3,3,3-trifluoropropyl)piperidin-3-yl]oxy}pyridin-3-yl)-1,2-thiazole-4-carboxamide]",6.96,6.49,–
"Cc1nsc(Nc2cnc(C(F)(F)F)cn2)c1C(=O)Nc1ccc(OCC2CCN(CCF)CC2)nc1 [Example 344, N-(6-{[1-(2-fluoroethyl)piperidin-4-yl]methoxy}pyridin-3-yl)-3-methyl-5-{[5-(trifluoromethyl)pyrazin-2-yl]amino}-1,2-thiazole-4-carboxamide]",6.54,6.00,–
"Cc1nsc(Nc2cnc(C(F)(F)F)cn2)c1C(=O)Nc1ccc(OCCCN(C)CCF)nc1 [Example 352, N-(6-{3-[(2-fluoroethyl)(methyl)amino]propoxy}pyridin-3-yl)-3-methyl-5-{[5-(trifluoromethyl)pyrazin-2-yl]amino}-1,2-thiazole-4-carboxamide]",6.33,5.96,–
"Cc1nsc(Nc2cnc(C(F)(F)F)cn2)c1C(=O)Nc1ccc(OCCCN(C)CC(F)F)nc1 [Example 353, N-(6-{3-[(2,2-difluoroethyl)(methyl)amino]propoxy}pyridin-3-yl)-3-methyl-5-{[5-(trifluoromethyl)pyrazin-2-yl]amino}-1,2-thiazole-4-carboxamide]",7.02,6.48,–
"Cc1nsc(Nc2cnc(C(F)(F)F)cn2)c1C(=O)Nc1ccc(N2CCN(CC(F)(F)F)CC2)cn1 [Example 373, 3-methyl-N-{5-[4-(2,2,2-trifluoroethyl)piperazin-1-yl]pyridin-2-yl}-5-{[5-(trifluoromethyl)pyrazin-2-yl]amino}-1,2-thiazole-4-carboxamide]",6.59,6.09,–
"Cc1nsc(Nc2cnc(C(F)(F)F)cn2)c1C(=O)Nc1ccc(OCCN(C)CCF)nc1 [Example 348, N-(6-{2-[(2-fluoroethyl)(methyl)amino]ethoxy}pyridin-3-yl)-3-methyl-5-{[5-(trifluoromethyl)pyrazin-2-yl]amino}-1,2-thiazole-4-carboxamide]",6.51,6.00,–
"Cc1nsc(Nc2cnc(C(F)(F)F)cn2)c1C(=O)Nc1ccc(OC2CCCN(C(CF)CF)C2)nc1 (stereo not drawn) [Example 333, N-(6-{[1-(1,3-difluoropropan-2-yl)piperidin-3-yl]oxy}pyridin-3-yl)-3-methyl-5-{[5-(trifluoromethyl)pyrazin-2-yl]amino}-1,2-thiazole-4-carboxamide]",7.14,5.92,–
"Cc1nsc(Nc2cnc(C(F)(F)F)cn2)c1C(=O)Nc1ccc(O[C@@H]2CCN(CC(F)F)C[C@H]2F)nc1 [Example 366, N-(6-{[(3R,4R)-1-(2,2-difluoroethyl)-3-fluoropiperidin-4-yl]oxy}pyridin-3-yl)-3-methyl-5-{[5-(trifluoromethyl)pyrazin-2-yl]amino}-1,2-thiazole-4-carboxamide]",7.24,6.52,–
"Cc1nsc(Nc2cnc(C(F)(F)F)cn2)c1C(=O)Nc1ccc(OCCN(C)CC(F)(F)F)nc1 [Example 350, 3-methyl-N-(6-{2-[methyl(2,2,2-trifluoroethyl)amino]ethoxy}pyridin-3-yl)-5-{[5-(trifluoromethyl)pyrazin-2-yl]amino}-1,2-thiazole-4-carboxamide]",7.00,6.55,–
"Cc1nsc(Nc2cnc(C(F)(F)F)cn2)c1C(=O)Nc1ccc(O[C@H]2CCCN(CC(F)(F)F)C2)nc1 [Example 389, 3-methyl-N-(6-{[(3S)-1-(2,2,2-trifluoroethyl)piperidin-3-yl]oxy}pyridin-3-yl)-5-{[5-(trifluoromethyl)pyrazin-2-yl]amino}-1,2-thiazole-4-carboxamide]",7.03,6.51,–
"Cc1nsc(Nc2ccc(C#N)cn2)c1C(=O)Nc1ccc(OC2CCNCC2)nc1 [Example 28, 5-[(5-Cyanopyridin-2-yl)amino]-3-methyl-N-[6-(piperidin-4-yloxy)pyridin-3-yl]-1,2-thiazole-4-carboxannide]",4.96,5.43,–

# Further compounds by rising pIC50 [1], results first:
pIC50 [1],"pIC50 (HeLa; Homo sapiens, HeLa, 96 h)",pIC50 (HeLa),SMILES
7.24,6.41,–,"CCN1CC[C@@H](Oc2ccc(NC(=O)c3c(C)nsc3Nc3cnc(C(F)(F)F)cn3)cn2)[C@H](F)C1 [Example 369, N-(6-{[(3R,4R)-1-ethyl-3-fluoropiperidin-4-yl]oxy}pyridin-3-yl)-3-methyl-5-{[5-(trifluoromethyl)pyrazin-2-yl]amino}-1,2-thiazole-4-carboxamide]"
7.30,6.11,–,"Cc1nsc(Nc2cnc(C(F)(F)F)cn2)c1C(=O)Nc1ccc(CCC2CCN(CC(F)F)CC2)nc1 [Example 356, N-(6-{2-[1-(2,2-difluoroethyl)piperidin-4-yl]ethyl}pyridin-3-yl)-3-methyl-5-{[5-(trifluoromethyl)pyrazin-2-yl]amino}-1,2-thiazole-4-carboxamide]"
7.33,–,6.43,"Cc1nsc(Nc2cnc(C(F)(F)F)cn2)c1C(=O)Nc1ccc(F)c(OCC2CCCN(CC(F)F)C2)c1 (stereo not drawn) [Example 334, N-(3-{[1-(2,2-difluoroethyl)piperidin-3-yl]methoxy}-4-fluorophenyl)-3-methyl-5-{[5-(trifluoromethyl)pyrazin-2-yl]amino}-1,2-thiazole-4-carboxamide]"
7.33,6.39,–,"Cc1nsc(Nc2cnc(C(F)(F)F)cn2)c1C(=O)Nc1ccc(O[C@@H]2CCN(CCC(F)(F)F)C2)nc1 [Example 381, 3-methyl-5-{[5-(trifluoromethyl)pyrazin-2-yl]amino}-N-(6-{[(3R)-1-(3,3,3-trifluoropropyl)pyrrolidin-3-yl]oxy}pyridin-3-yl)-1,2-thiazole-4-carboxamide]"
7.40,6.52,–,"Cc1nsc(Nc2cnc(C(F)(F)F)cn2)c1C(=O)Nc1ccc(OC[C@@H]2CCCN(CC(F)F)C2)nc1 [Example 375, N-(6-{[(3R)-1-(2,2-difluoroethyl)piperidin-3-yl]methoxy}pyridin-3-yl)-3-methyl-5-{[5-(trifluoromethyl)pyrazin-2-yl]amino}-1,2-thiazole-4-carboxamide]"
7.48,6.57,–,"Cc1nsc(Nc2cnc(C(F)(F)F)cn2)c1C(=O)Nc1ccc(OCC2CCN(CC(F)(F)F)CC2)nc1 [Example 346, 3-methyl-N-(6-{[1-(2,2,2-trifluoroethyl)piperidin-4-yl]methoxy}pyridin-3-yl)-5-{[5-(trifluoromethyl)pyrazin-2-yl]amino}-1,2-thiazole-4-carboxamide]"
7.52,6.49,–,"Cc1nsc(Nc2cnc(C(F)(F)F)cn2)c1C(=O)Nc1ccc(C2CCN(CC(F)(F)F)CC2)nc1 [Example 358, 3-methyl-N-{6-[1-(2,2,2-trifluoroethyl)piperidin-4-yl]pyridin-3-yl}-5-{[5-(trifluoromethyl)pyrazin-2-yl]amino}-1,2-thiazole-4-carboxamide]"
7.54,6.19,–,"Cc1nsc(Nc2cnc(C(F)(F)F)cn2)c1C(=O)Nc1ccc(F)c(OC[C@H]2CCN(CCC(F)(F)F)C2)c1 [Example 399, N-(4-fluoro-3-{[(3S)-1-(3,3,3-trifluoropropyl)pyrrolidin-3-yl]methoxy}phenyl)-3-methyl-5-{[5-(trifluoromethyl)pyrazin-2-yl]amino}-1,2-thiazole-4-carboxamide]"
7.55,6.57,–,"Cc1nsc(Nc2cnc(C(F)(F)F)cn2)c1C(=O)Nc1ccc(OCC2CCN(CC(F)F)CC2)nc1 [Example 345, N-(6-{[1-(2,2-difluoroethyl)piperidin-4-yl]methoxy}pyridin-3-yl)-3-methyl-5-{[5-(trifluoromethyl)pyrazin-2-yl]amino}-1,2-thiazole-4-carboxamide]"
7.57,6.52,–,"Cc1nsc(Nc2cnc(C(F)(F)F)cn2)c1C(=O)Nc1ccc(O[C@@H]2CCN(CC(F)(F)F)C[C@H]2F)nc1 [Example 367, N-(6-{[(3R,4R)-3-fluoro-1-(2,2,2-trifluoroethyl)piperidin-4-yl]oxy}pyridin-3-yl)-3-methyl-5-{[5-(trifluoromethyl)pyrazin-2-yl]amino}-1,2-thiazole-4-carboxamide]"
7.85,6.34,–,"CCCCN1CCC(COc2ccc(NC(=O)c3c(C)nsc3Nc3cnc(C(F)(F)F)cn3)cn2)C(F)(F)C1 (stereo not drawn) [Example 396, N-{6-[(1-butyl-3,3-difluoropiperidin-4-yl)methoxy]pyridin-3-yl}-3-methyl-5-{[5-(trifluoromethyl)pyrazin-2-yl]amino}-1,2-thiazole-4-carboxamide]"
8.15,6.46,–,"Cc1nsc(Nc2cnc(C(F)(F)F)cn2)c1C(=O)Nc1ccc(OC2CCCN(CCC(F)(F)F)C2)nc1 (stereo not drawn) [Example 332, 3-methyl-5-{[5-(trifluoromethyl)pyrazin-2-yl]amino}-N-(6-{[1-(3,3,3-trifluoropropyl)piperidin-3-yl]oxy}pyridin-3-yl)-1,2-thiazole-4-carboxamide]"
